Columns and labels:
human amylin (hA) = biological target: T1, human amylin (hA) (Homo sapiens, UniProt P10997); assay: Thioflavin-T assay, inhibition of amylin fibril formation; assay type: biochemical
T1 construct: Human amylin, also known as islet amylin amyloid polypeptide (IAPP), is a 37-residue peptide hormone
T1 sequence (P10997 34-70 limits assumed): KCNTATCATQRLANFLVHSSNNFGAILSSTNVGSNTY
Description: (§1) The ability of the compounds to inhibit human amylin (hA) fibril formation was assessed using the thioflavin-T assay, as described in J. F. Aitken et al., Suppression by polycyclic compounds of the conversion of human amylin into insoluble amylin amyloid., Biochem J., 374 (2003), 779-784. Inhibition was assessed at three hA:compound ratios (1:1, 1:0.1, 1:0.01) for each compound.
as §1, with “J” for “J.,”, “(2003)” for “(2003),”

[1] = for soluble in water: pH 11; for solubility in words at acid pH: pH 1.8; for solubility in words at alkaline pH (1 M NaOH): pH 11.1
Description: (§2) The compounds were titrated down to pH 8-9 with 1 M HCl and solubility determined immediately, and following overnight and longer term storage.
Light yellow solid. […] Add 1M NaOH.

[2] = Solubility and physical characteristics (1 M NaOH / 1 M HCl titration); settings: for soluble during initial suspension and on titration and pH adjustment: Example 12, titrated down to pH 8-9 with 1 M HCl
Description: as §2
Light yellow solid. […] Add 1M NaOH.

| soluble in water [1] [%] | soluble during initial suspension and on titration and pH adjustment [2] [%] | solubility in words at acid pH [1] | solubility in words at alkaline pH (1 M NaOH) [1] | Structure (SMILES) | further results |
| --- | --- | --- | --- | --- | --- |
| 100 | 100 | – | – | COc1cccc(NC(=O)CC(=O)c2ccc(O)c(O)c2)n1 [Compound 1] | inhibition of hA fibril formation (human amylin (hA); Example 12, FIG. 1B, hA:compound ratio 1:0.1): Inhibition of hA fibril formation was observed |
| – | – | – | – | O=c1cc(-c2ccc(O)cc2)nc2cccc(O)n12 [Compound 5] | inhibition of hA fibril formation (human amylin (hA); Example 14, ratio not stated at the place): little inhibition; solubility at pH 7.4 ([1]; pH 7.4): lack of solubility; solubility below pH 10 ([1]; pH 10): not soluble; solubility in words after adding 1 M NaOH again, pH 10.4 ([1]; pH 10.4): completely soluble; soluble on addition of 1 M NaOH ([1]; pH 10.6): approx. 70%; solubility in words after leaving 30 min in 1M NaOH ([1]; pH 11.3): completely soluble; appearance after adding 1 M HCl, pH 8.9 ([2]; Example 14): slightly cloudy, some precipitation |
| – | – | Completely insoluble | Completely insoluble | O=c1cc(-c2cccc(O)c2)nc2cccc(O)n12 [Compound 6] | – |
| – | – | Completely insoluble | Completely insoluble | COc1ccc(-c2cc(=O)n3c(O)cccc3n2)cc1OC [Compound 7] | – |
| 100 | 95 | – | – | COc1ccnc(NC(=O)CC(=O)c2ccc(O)c(O)c2)c1 [Compound 9] | – |

— US20220041591A1, “COMPOUNDS FOR TREATING DIABETES AND/OR RELATED CONDITIONS” (AUCKLAND UNISERVICES LIMITED, priority 2018, published 2022)
